# Target: T1, recombinant human thymidylate synthase (hTS) (Homo sapiens, UniProt P04818)
# T1 construct: His tag (N); purchased Abcam ab95378
# Test: cell-free human thymidylate synthase (hTS) inhibition assay
# Assay type: biochemical
# Settings: 0.84 μM hTS, 50 μM dUMP, 250 μM mTHF, DHF formation at 340 nm, room temperature, pH 7.5
# Description: This assay measures TS-catalyzed conversion of dUMP and mTHF to dTMP and dihydrofolate (DHF), the latter of which uniquely absorbs strongly at 340 nm (Figures S1 and S2). […] Concentration–response curves were constructed by plotting the normalized reaction rates (calculated using data from the first 100 s after reaction initiation) versus log[inhibitor].
# The final concentrations of hTS, dUMP, and mTHF in the reaction systems were 0.84 μM, 50 μM, and 250 μM, respectively. The reaction rates were determined by following the change in the optical absorbance at 340 nm, which corresponded to the formation of the coproduct, DHF.
# Human Thymidylate Synthase Inhibition Assay
# Recombinant human thymidylate synthase (hTS) was purchased from Abcam (ab95378). The protein was
# His-tagged (N-terminal) and >95% pure by SDS-PAGE according to the vendor. dUMP (disodium salt)
# (F3503), 5,10-methylenetetrahydrofolate (mTHF, calcium salt , folitixorin calcium ) was purchased from
# Boc Sciences (B0084-007873), and all were used without further purification. The cell-free functional hTS
# assay protocol was modified from literature procedures :
# Inhibition assays were performed using a BioTek Synergy Neo2 plate reader equipped with a Xenon flash
# lamp and a photodiode array detector. The hTS reaction was conducted at room temperature in a buffer
# solution (pH 7.5) containing 50 mM Tris -HCl, 1 mM EDTA, 25 mM MgCl 2, and 5 mM HCHO. The
# reaction system (175 μL total volume, 1 cm optical path lengt h) contained 50 μM dUMP (primary
# substrate), 250 μM mTHF (co-substrate and enzyme cofactor), 0.84 μM hTS (enzyme), and decreasing
# Formation of the co -product, dihydrofolate, was monitored at 340 nm. Reaction rates were
# calculated by plotting t he absorbance at 340 nm against the reaction time and performing linear regression
# analysis to determ ine the slope. The reaction rates at different inhibitor concentrations were normalized to
# the reaction rate determined in the absence of inhibitor (100% enzymatic activity). Concentration-response
# curves were constructed by plotting t he resulting mean % enzymatic activity values (from at least three
# independent experiments) against log[inhibitor]. IC50 values were then calculated using non -linear
# regression (four -parameter logistic equation, see Equation 1 below) in the GraphPad Prism v.9 software.
# Equation 1: Y = Ymin + (Ymax – Ymin) / [1 + 10((logIC50 – X) × Hill Slope)]
# T1 sequence (P04818 whole entry): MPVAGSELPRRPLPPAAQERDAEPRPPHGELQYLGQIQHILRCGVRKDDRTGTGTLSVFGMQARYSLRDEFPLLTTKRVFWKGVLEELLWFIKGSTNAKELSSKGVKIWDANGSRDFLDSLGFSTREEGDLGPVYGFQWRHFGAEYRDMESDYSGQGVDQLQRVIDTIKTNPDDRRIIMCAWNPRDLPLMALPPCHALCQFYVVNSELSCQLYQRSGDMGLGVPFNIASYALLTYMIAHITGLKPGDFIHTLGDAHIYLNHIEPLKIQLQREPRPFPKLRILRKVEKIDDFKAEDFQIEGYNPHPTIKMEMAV
row,Structure (SMILES),IC50 [nM]
1,"C[C@@H](OP(=O)(O)O)[C@H]1O[C@@H](n2cc(F)c(=O)[nH]c2=O)C[C@@H]1O [Compound 1, 5′(R)-CH3 FdUMP]",1210
2,"C[C@H](OP(=O)(O)O)[C@H]1O[C@@H](n2cc(F)c(=O)[nH]c2=O)C[C@@H]1O [Compound 2, 5′(S)-CH3 FdUMP]",> 20000

# The remaining lines, values ahead:
row,IC50 [nM],Structure (SMILES)
1,> 20000,"CC(C)(OP(=O)(O)O)[C@H]1O[C@@H](n2cc(F)c(=O)[nH]c2=O)C[C@@H]1O [Compound 3, 5′-gem-(CH3)2 FdUMP]"
2,1240,"O=c1[nH]c(=O)n([C@H]2C[C@H](O)[C@@H]([C@H](OP(=O)(O)O)C(F)(F)F)O2)cc1F [Compound 4, 5′(S)-CF3 FdUMP]"
3,> 20000,"O=c1[nH]c(=O)n([C@H]2C[C@H](O)[C@@H]([C@@H](OP(=O)(O)O)C(F)(F)F)O2)cc1F [Compound 5, 5′(R)-CF3 FdUMP]"

# System: dihydropyrimidine dehydrogenase (DPD)
# Test: not given
# Parameters: method as in PMID 9830621, PMID 31756363
# Settings: cited from earlier work
row,Structure (SMILES),catabolic degradation in the liver by DPD
1,"O=c1[nH]cc(F)c(=O)[nH]1 [5-FU, 5-Fluorouracil]",up to 85%

# Source: article PMC10186355, “Discovery of 5′-Substituted 5-Fluoro-2′-deoxyuridine Monophosphate Analogs: A Novel Class of Thymidylate Synthase Inhibitors” (ACS Pharmacology & Translational Science, 2023)
